Reference: ChEMBL document CHEMBL1201862, “PubChem BioAssay data set” (2004)
Calls of active or inactive are those of the source.

Tests used:
Genome polyprotein = Genome polyprotein (dengue virus type 2, UniProt P29990); experiment: flavivirus cap methylation enzyme inhibition – biochemical, confirmation dose response, primary screen (AID 588689); format: functional
SN12K1 = experiment: cells; format: functional; details: Homo sapiens
P388/ADR = experiment: cells; format: functional; details: Mus musculus
P388 = experiment: cells; format: functional; details: Mus musculus
[1] = biological target: Peroxisome proliferator-activated receptor gamma/Nuclear receptor coactivator 2 (Homo sapiens, UniProt P37231); format: functional;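 also: agonist potency for raising coactivator recruitment to the receptor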
[2] = biological target: Peroxisome proliferator-activated receptor gamma/Nuclear receptor coactivator 3 (Homo sapiens, UniProt P37231); format: functional;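 also: agonist potency for raising coactivator recruitment to the receptor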
[3] = biological target: Peroxisome proliferator-activated receptor gamma/Nuclear receptor coactivator 1 (Homo sapiens, UniProt P37231); format: functional;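 also: agonist potency as compounds enhance coactivator SRC-1 recruitment to PPARgamma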
[4] = viability loss in THP-1 monocytes – THP-1 cells, cytotoxicity control for Vif-APOBEC3G degradation inhibitor project, dose response (AID 1117359); format: functional; details: THP-1
[5] = biological target: T1, Heat shock factor protein 1 (Mus musculus, UniProt P38532); experiment: decrease of HSF1-responsive luciferase luminescence – cell-based, NIH3T3, dose retest, confirmation (AID 2382); format: functional;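 also: NIH3T3 fibroblasts with HSF1-driven luciferase reporter stressed by proteasome inhibitor MG132; luminescence from HSF1-driven luciferase expression after 8 hours of MG132 stress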
T1 sequence (P38532 whole entry): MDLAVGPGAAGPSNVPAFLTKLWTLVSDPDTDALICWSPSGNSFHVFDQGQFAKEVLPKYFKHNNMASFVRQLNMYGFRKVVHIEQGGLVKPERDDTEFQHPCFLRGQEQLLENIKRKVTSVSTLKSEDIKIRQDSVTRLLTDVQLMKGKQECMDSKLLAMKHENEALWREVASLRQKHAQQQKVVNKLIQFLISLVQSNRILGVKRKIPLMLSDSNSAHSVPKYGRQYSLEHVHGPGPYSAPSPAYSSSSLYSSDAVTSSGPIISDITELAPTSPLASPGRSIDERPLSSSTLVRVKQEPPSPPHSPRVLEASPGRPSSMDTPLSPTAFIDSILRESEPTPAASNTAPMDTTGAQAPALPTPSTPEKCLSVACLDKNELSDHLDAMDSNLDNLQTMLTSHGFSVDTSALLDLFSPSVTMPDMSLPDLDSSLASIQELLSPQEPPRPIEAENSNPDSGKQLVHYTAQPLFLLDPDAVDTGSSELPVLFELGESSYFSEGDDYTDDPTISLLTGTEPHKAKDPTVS

[6] = biological target: Heat shock protein HSP 90-alpha (Homo sapiens, UniProt P07900); format: functional, organism-based
[7] = Luminescence Cell-Based Dose Retest to Confirm Inhibitors of Cancer Stem Cells. [Related pubchem assays (depositor defined):AID2717, AID2721]; format: functional; details: Homo sapiens
[8] = biological target: FAD-linked sulfhydryl oxidase ALR (Homo sapiens, UniProt P55789); experiment: ALR-catalysed DTT oxidation blockers – biochemical, H2O2 detection, luminescence, cherry-pick, dose response (AID 493248)
[9] = NIH-3T3 fibroblast cytotoxicity, dose response, cytotoxicity control, cell-based, fluorescence, Alamar Blue, secondary assay (AID 2327); format: functional;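 also: NIH-3T3 mouse fibroblasts cultured with fluconazole at 8 µg/mL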
[10] = biological target: T2, Endoribonuclease toxin MazF (Escherichia coli K-12, UniProt P0AE70); experiment: substrate-only fluorescence increase artefacts – biochemical, single-stranded RNase substrate, counter-screen for MazEF activator project, dose response (AID 588502); format: functional
T2 sequence (P0AE70 whole entry): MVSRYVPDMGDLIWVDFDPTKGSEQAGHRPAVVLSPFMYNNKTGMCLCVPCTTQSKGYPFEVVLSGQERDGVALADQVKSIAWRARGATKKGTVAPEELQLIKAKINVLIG

[11] = biological target: T2, Endoribonuclease toxin MazF; experiment: activation of MazEF endoribonuclease cleavage – biochemical, fluorescence, single-stranded RNA substrate, uHTS hits, dose response (AID 588481); format: functional

Genome polyprotein, sequence (P29990 2492-3391 limits assumed): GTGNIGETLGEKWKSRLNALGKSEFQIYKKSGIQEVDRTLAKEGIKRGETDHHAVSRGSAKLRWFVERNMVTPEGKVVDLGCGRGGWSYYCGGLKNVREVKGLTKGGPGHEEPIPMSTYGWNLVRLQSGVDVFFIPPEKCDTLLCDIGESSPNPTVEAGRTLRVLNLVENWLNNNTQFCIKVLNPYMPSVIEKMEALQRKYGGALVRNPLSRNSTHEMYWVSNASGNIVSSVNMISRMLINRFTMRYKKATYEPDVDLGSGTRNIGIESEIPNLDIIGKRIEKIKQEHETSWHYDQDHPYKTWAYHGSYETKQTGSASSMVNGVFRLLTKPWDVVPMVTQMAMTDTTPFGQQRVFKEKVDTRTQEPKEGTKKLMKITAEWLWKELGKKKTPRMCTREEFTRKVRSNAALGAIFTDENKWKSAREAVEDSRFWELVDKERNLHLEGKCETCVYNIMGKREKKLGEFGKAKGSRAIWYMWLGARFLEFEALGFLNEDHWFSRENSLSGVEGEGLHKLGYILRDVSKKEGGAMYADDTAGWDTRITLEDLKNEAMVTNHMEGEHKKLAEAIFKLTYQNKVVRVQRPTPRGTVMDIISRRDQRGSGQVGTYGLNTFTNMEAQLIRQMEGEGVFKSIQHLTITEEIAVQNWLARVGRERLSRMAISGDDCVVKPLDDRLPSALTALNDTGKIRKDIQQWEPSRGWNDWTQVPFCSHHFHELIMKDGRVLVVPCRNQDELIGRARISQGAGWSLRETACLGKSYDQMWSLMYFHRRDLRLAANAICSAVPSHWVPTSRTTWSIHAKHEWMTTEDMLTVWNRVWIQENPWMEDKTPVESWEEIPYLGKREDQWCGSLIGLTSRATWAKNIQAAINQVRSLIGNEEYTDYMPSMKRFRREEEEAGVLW
Peroxisome proliferator-activated receptor gamma/Nuclear receptor coactivator 3, sequence (P37231 whole entry): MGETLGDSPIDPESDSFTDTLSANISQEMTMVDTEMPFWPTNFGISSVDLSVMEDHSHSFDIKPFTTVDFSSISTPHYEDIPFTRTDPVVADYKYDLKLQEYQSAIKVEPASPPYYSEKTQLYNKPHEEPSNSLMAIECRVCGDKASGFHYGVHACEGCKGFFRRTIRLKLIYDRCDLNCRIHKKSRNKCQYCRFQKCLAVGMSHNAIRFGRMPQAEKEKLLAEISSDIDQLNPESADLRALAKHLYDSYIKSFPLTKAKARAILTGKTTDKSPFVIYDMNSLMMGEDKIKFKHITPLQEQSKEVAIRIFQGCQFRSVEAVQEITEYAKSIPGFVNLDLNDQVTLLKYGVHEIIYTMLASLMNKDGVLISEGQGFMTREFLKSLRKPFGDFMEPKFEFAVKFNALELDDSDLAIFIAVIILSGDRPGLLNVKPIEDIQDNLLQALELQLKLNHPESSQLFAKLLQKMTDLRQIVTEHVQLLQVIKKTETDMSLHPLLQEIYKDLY
Peroxisome proliferator-activated receptor gamma/Nuclear receptor coactivator 3, sequence (Q9Y6Q9 whole entry, further chain): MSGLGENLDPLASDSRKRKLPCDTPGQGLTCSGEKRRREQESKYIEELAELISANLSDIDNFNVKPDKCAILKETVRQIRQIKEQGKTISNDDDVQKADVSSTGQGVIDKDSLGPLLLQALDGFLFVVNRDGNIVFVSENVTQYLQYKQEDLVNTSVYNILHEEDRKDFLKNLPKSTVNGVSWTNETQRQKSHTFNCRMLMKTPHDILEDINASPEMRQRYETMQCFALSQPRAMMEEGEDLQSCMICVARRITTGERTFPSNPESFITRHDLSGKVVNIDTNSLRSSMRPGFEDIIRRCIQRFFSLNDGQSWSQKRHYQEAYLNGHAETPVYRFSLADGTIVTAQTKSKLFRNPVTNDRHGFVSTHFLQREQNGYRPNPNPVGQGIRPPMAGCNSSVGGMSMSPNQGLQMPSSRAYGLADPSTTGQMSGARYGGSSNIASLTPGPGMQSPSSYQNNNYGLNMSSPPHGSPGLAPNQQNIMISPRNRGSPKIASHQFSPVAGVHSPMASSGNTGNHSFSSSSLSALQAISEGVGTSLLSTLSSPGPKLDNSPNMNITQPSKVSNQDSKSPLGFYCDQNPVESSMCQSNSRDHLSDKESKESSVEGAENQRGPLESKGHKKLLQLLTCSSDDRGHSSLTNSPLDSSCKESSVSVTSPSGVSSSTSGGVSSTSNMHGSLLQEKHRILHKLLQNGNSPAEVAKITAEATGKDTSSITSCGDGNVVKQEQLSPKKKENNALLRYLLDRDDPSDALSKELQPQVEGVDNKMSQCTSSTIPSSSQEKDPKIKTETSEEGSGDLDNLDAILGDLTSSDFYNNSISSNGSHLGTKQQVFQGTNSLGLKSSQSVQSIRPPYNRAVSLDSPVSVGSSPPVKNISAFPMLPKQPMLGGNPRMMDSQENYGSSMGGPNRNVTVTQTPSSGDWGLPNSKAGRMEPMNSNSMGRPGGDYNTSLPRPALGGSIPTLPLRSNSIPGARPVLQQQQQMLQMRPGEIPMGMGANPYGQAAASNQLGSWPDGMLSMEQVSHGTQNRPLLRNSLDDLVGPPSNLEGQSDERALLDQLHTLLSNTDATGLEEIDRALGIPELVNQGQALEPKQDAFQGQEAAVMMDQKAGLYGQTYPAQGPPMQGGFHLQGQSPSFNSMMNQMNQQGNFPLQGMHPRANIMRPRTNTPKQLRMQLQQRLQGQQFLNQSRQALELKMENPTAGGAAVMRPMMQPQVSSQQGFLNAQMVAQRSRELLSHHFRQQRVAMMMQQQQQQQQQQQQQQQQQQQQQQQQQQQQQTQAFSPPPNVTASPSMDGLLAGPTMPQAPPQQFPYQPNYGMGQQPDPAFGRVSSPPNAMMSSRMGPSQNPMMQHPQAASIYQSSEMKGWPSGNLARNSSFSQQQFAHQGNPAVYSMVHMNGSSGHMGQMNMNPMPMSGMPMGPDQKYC
Peroxisome proliferator-activated receptor gamma/Nuclear receptor coactivator 2, sequence (P37231 whole entry): as the sequence (P37231 whole entry) above
Peroxisome proliferator-activated receptor gamma/Nuclear receptor coactivator 2, sequence (Q15596 whole entry, further chain): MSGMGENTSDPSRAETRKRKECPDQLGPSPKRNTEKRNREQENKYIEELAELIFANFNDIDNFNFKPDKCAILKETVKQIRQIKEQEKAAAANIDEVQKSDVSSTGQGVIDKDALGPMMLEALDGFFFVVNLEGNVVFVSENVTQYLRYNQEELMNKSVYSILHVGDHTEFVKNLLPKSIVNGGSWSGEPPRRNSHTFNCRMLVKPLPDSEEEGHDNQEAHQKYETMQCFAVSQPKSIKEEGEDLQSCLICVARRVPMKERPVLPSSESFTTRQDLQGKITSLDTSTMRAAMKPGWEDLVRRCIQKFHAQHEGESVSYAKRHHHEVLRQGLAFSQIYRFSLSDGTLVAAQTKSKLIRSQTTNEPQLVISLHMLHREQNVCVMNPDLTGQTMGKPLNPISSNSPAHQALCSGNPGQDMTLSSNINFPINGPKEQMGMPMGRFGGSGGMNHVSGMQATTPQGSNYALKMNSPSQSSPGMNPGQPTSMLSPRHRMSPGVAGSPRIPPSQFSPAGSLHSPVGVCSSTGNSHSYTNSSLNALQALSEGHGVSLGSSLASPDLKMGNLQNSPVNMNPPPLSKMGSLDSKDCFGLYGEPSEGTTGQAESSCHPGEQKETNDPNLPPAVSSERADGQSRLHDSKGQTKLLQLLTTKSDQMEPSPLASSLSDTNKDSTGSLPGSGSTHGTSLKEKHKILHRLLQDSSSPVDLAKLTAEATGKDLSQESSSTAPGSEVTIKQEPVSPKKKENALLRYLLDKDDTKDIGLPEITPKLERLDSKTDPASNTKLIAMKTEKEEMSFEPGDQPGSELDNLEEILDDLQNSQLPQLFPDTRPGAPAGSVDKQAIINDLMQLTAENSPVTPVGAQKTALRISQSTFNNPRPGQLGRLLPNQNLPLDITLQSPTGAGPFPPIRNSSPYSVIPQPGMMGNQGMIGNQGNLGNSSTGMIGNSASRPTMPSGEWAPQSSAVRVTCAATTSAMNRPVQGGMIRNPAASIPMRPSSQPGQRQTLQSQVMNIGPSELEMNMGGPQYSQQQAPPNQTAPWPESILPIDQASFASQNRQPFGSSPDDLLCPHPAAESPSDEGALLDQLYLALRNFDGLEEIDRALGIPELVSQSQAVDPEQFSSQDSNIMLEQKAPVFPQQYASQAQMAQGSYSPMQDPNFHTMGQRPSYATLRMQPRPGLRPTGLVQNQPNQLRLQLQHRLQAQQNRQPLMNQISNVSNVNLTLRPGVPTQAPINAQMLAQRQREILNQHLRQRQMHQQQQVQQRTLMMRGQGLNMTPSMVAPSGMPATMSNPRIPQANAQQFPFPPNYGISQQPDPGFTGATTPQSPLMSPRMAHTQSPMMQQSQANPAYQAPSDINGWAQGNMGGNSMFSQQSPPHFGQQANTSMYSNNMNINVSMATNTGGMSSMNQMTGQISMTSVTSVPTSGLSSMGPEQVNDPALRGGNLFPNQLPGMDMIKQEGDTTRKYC
FAD-linked sulfhydryl oxidase ALR, sequence (P55789 whole entry): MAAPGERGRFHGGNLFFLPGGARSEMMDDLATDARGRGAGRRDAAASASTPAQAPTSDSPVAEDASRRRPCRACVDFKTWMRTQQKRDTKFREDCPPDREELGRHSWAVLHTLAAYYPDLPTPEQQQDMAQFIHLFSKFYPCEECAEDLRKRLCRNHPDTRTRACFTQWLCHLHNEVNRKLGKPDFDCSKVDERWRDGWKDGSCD

O=C(O)[C@H](Cc1ccccc1)N1C(=O)c2c(Cl)c(Cl)c(Cl)c(Cl)c2C1=O
IC50 (Genome polyprotein): 23.9 µM (active)

CN(C)CCNC(=O)c1cccc2ccc(-c3ccc(Br)cc3)nc12
GI50 (SN12K1): 0.895 µM (active) | GI50 (P388/ADR): 0.512 µM (active) | GI50 (P388): 0.374 µM (active)

CCOc1cccc2cc(C(=O)Nc3cc(C)on3)c(=O)oc12
EC50 [1]: 22.4 µM (not active) | EC50 [2]: 30.1 µM (not active) | EC50 [3]: 24.6 µM (not active)

Cc1nn(-c2ccccn2)c2c1-c1nc(N3CCOCC3)ncc1CC2
EC50 [1]: > 79.4 µM (not active) | EC50 [2]: > 79.4 µM (not active) | EC50 [3]: > 79.4 µM (not active)

CC(=O)Nc1ccc(OCC(O)CNC2CCCC2)cc1 (stereo unspecified)
CC50 [4]: > 40 µM (active)

Oc1ccc(C2=NN(c3ccccc3)C(c3ccc(F)cc3)C2)cc1 (stereo unspecified)
EC50 [5]: > 195 µM (not active) | AC50 [6]: 4.34 µM (active) | AC50 [7]: 2.97 µM (active)

O=C(NNc1ccc(O)cc1)c1ccc(Br)cc1
IC50 (Genome polyprotein): > 100 µM (active) | AC50 [8]: 0.096 µM (active) | EC50 [9]: 28.9 µM (active)

COc1ccc(NC(=O)CC2Nc3cccc4cccc(c34)NC2=O)cc1 (stereo unspecified)
CC50 [4]: > 40 µM (active)

COc1ccc(C2COc3c(ccc(O)c3C)C2)cc1OC (stereo unspecified)
GI50 (SN12K1): 45.8 µM (inactive) | GI50 (P388/ADR): 35.9 µM (inactive) | GI50 (P388): 40.9 µM (inactive)

Cc1cc(-c2ccccc2)c2c3c(c(-c4ccccc4)n2n1)c(=O)n(C)c(=O)n3C
EC50 [10]: > 99 µM (inactive) | EC50 [11]: > 99 µM (inactive)

CC(=O)OCC1OC(NC(=O)N(CCCl)N=O)C(OC(C)=O)C(OC(C)=O)C1OC(C)=O (stereo unspecified)
GI50 (SN12K1): > 100 µM (inactive) | GI50 (P388/ADR): 44.9 µM (inactive) | GI50 (P388): 26.7 µM (inactive)
